Patent US7973219B2, “Method for producing transgenic plants resistant to weed control compounds which disrupt the porphyrin pathways of plants” (Sumitomo Chemical Company, Limited, priority 1998, dated 2011)

Tests used:
[1] = system: E. coli BT3/pACYCSP+pTVCSF strain; test: Growth of E. coli BT3/pACYCSP+pTVCSF (variant cucumber ferrochelatase) with herbicidal compound; assay type: cell-based, Escherichia coli; details: 18 hours culture, Table 13
Description: According to the description of Gibson, L. C. D. et al., Proc. Natl. Acad. Sci. USA, 92; p 1941 (1995), the DNA fragment containing bchH gene prepared in Example 1 was digested with the restriction enzymes NdeI and BglII. The resultant DNA fragment was inserted between NdeI restriction site and BamHI restriction site of expression vector pET11a (manufactured by Stratagene) to obtain plasmid pETBCH (FIG. 1). This plasmid pETBCH was introduced into E. coli BL21(DE3) strain competent cells (manufactured by Stratagene) according to the manual attached to the competent cells to obtain E. coli BL21(DE3)/pETBCH strain. The strain was inoculated into 1.5 ml LB liquid culture medium (1% tryptone, 0.5% yeast extract, 0.5% NaCl) containing 100 μg/ml ampicillin in a tube (14×10 mm), and the tube was covered with aluminum foil (hereinafter referred to as dark conditions), cultured with shaking at 37° C. under light of fluorescent lamp (about 8000 lux). When the absorbance at 600 nm of the liquid culture medium became about 0.6, isopropyl β-D-thiogalactopyranoside (IPTG) was added to the liquid culture medium so that the final concentration was 0.4 mM, and the culture was continued for about additional 20 hours. […] In contrast to this, when E. coli BL21(DE3)/pETBCH strain was cultured according to the same manner (with IPTG) except that the tube was not covered with aluminum foil (hereinafter referred to as light conditions), E. coli grew and turned red as above.
PCR was carried out by using cucumber ferrochelatase cDNA clone isolated by the method described in Miyamoto, K. et al. Plant Physiol., 105; p 769 (1994) as a template, an oligonucleotide composed of the nucleotide sequence of SEQ ID NO: 21 and an oligonucleotide composed of the nucleotide sequence of SEQ ID NO: 22 as primers to amplify the DNA fragment encoding cucumber ferrochelatase whose signal sequence had been deleted (hereinafter referred to as the variant cucumber ferrochelatase). […]
These E. coli strains were inoculated into YPT medium containing 10 or 1 ppm of the PPO inhibitory-type herbicidal compound represented by Structure 8, 100 μg/ml ampicillin, 15 μg/ml chloramphenicol, 10 μg/ml kanamycin, 10 μg/ml hemin and 50 μg/ml aminolevulinic acid, cultured under dark conditions or light conditions according to the same manner as in Example 2. Then, 18 hours after initiation of culture, the absorbance of liquid culture medium was measured at 600 nm. By taking the absorbance of the medium without the herbicidal compound as 1, the relative value of the absorbance of the medium containing the herbicidal compound was calculated.

[2] = system: tobacco bearing introduced both Arabidopsis thaliana PPO(A220V) gene and gene encoding the variant tobacco chelatase subunit; test: Leaf piece chlorophyll test, tobacco with PPO(A220V) gene and variant tobacco chelatase subunit gene; assay type: in vivo; details: 2.0 ppm, 7 days in a light place, Example 37
Description: Tobacco leaf pieces cultured sterilely were infected with the Agrobacterium strain and, according to the same manner as in Example 5, tobacco bearing the introduced both Arabidopsis thaliana PPO(A220V) gene and gene encoding the variant tobacco chelatase subunit was obtained.
Leaves of the tobacco bearing the introduced both Arabidopsis thaliana PPO(A220V) gene and gene encoding the variant tobacco chelatase subunit produced in Example 36, those bearing the introduced Arabidopsis thaliana PPO(A220V) gene produced in Example 35, and the control recombinant tobacco leaves produced in Example 5were collected, and each leaf was divided into the right and left equivalent pieces along the main vein. One of the pieces was treated with an aqueous solution containing 2.0 ppm PPO inhibitory-type herbicidal compound of Structure 8, while the other piece was not treated with the compound. These leaf pieces were placed on MS medium containing 0.8% agar and allowed to stand at room temperature for 7 days in a light place. Then, each leaf piece was ground in 5 ml of 80% aqueous acetone solution in a mortar with a pestle to extract chlorophyll. The extract was diluted 10 times with 80% aqueous acetone solution and the absorbance was measured at 750 nm, 663 nm and 645 nm to calculate the total chlorophyll content according to the method described by Macknney G., J. Biol. Chem. (1941) 140, p 315. […]

## C#CCOc1cc(N2C(=O)C3=C(CCCC3)C2=O)c(F)cc1Cl [Structure 8]
[1]; in the dark, 1 ppm
  Relative absorbance: 0.92
[1]; in the dark, 10 ppm
  Relative absorbance: 0.89
[1]; in the light, 1 ppm
  Relative absorbance: 0.78
[1]; in the light, 10 ppm
  Relative absorbance: 0.73
[2]
  resistant level: 61.6%
